The subject of data set [1] is primary naïve CD4+ T-cells. The data set can be described thus: IL-2 in primary murine CD4+ T-cells. It counts as cell-based, mouse. To be noted: CD3/CD28 stimulation. The method, then:
For MEF cells, 1.2×10^5 cells per sample were seeded, treated with compound for 6 hours and stimulated with either IL-1β or TNFα for 60 minutes. […] RNA was isolated according to the manufacturer's protocol of the Qiagen RNeasy Kit (MEF cells) or the STRATEC INVITRAP® SPIN UNIVERSAL RNA MINI KIT (Jurkat T-cells). The isolation of mRNA from […] white adipose tissue from DIO mice was performed using TRIzol® Reagent according to manufacturer's instruction. To clear the isolated RNA from genomic DNA, samples (up to 5 μg RNA) were treated with RQ1 RNase-Free DNaseI (Promega) as described in the technical manual. […] For quantification of cDNA in the samples, the LightCylcer480 (Roche) and the KAPA SYBR FAST qPCR Kit were used. For relative quantification, the ΔΔCp method first described by Pfaffl (Pfaffl, M. W., A new mathematical model for relative quantification in real-time RT-PCR. Nucleic Acids Res, 2001. 29(9): p. e45) was applied. […]
For measurement of cytokine secretion, 2×10^5 Jurkat T-cells or primary CD4^+ T-cells or human PBMCs per sample were seeded, treated with compound for 6 hours and stimulated as indicated. 20 hours after stimulation, supernatants were harvested and analyzed with the IL-2, IL-1β and TNFα Ready-Set-Go! […]

Data set [2] has as its system TRAF6 auto-ubiquitination. The data set can be described thus: Immunoprecipitation of TRAF6, endogenous ubiquitination in MEF cells. It counts as cell-based, mouse. The method, then:
2.5×10^6 MEF cells were seeded, treated with compound for 6 hours and stimulated with IL-1β (3.5 ng/mL) for 10 minutes. Cells were lysed in Co-IP lysis buffer containing 1% SDS to eliminate all cellular interactions. After cell lysis and removal of input samples, the samples were diluted to 0.1% SDS and incubated with 5 μL TRAF6 antibody EP591Y (Abcam) and immunoprecipitated with Protein-G-Sepharose beads. After washing of the beads in Co-IP wash buffer, TRAF6 protein was eluted and levels of TRAF6 ubiquitination were detected by Western Blot analysis.

Data set [3] deals with Jurkat T-cells and U2OS cells. The data set can be described thus: Cell cycle assessment (propidium iodide). It counts as cell-based. The conditions noted are these: 24 hours and 72 hours treatment. The method, then:
For cell cycle staining, cells were seeded at 2×10^5 cells per sample and treated with compound or DMSO. After the indicated incubation time (24 or 72 hours), cells were fixed in 100% Ethanol and subsequently stained with the Propidium Iodide staining solution (0.1% Triton X-100; 20 μg/ml Propidium Iodide; 200 μg/ml RNAse A in PBS) for 40 min in the dark. The Propidium Iodide fluorescence was collected using the Attune Flow Cytometer (Thermo Fisher Scientific). Analysis was performed using the Single Cell analysis software FlowJo.

In data set [4] the test system is HBL1 (ABC-DLBCL-MYD88 L265P). The data set can be described thus: Cell viability in DLBCL, HBL1. It counts as cell-based. The conditions noted are these: 30 μM added at day 0, 4 and 8; 9 days. The method, then: To determine the effects of C25-140 on MYD88-dependent ABC-DLBCL, we chose the HBL1 (ABC-DLBCL-MYD88 L265P), U2932 (ABC DLBCL-MYD88 wt) and BJAB (GCB DLBCL) cell lines. 1×10^6 cells of each cell line was seeded in 5 ml and treated with 30 μM compound C25-140 (compound 3) or DMSO. The entire experiment was carried out for 9 days. Every day 500 μl were taken and viable cell number was acquired using the ViCEII cell counter (Beckmann Coulter). At days 4 and 8 of the experiment the volume was again adjusted to 5 ml and samples were supplemented with 30 μM compound C25-140 or DMSO. This process was necessary to ensure linear proliferation of DMSO treated cells. All curves of C25-140 treated samples were referred to the corresponding DMSO treated controls.

Data set [5] deals with T1, ITCH (Homo sapiens, UniProt Q96J02).
T1 construct: purchased Boston Biochem one of K-102, K-260, K-200B, K-220, K-240, K-270
The data set can be described thus: In vitro ubiquitination assay, ITCH. It counts as biochemical. To be noted: HECT E3 ligase. The method, then: For analysis of clAP1, MDM2, TRIM63, RNF4, ITCH and E6AP mediated poly-ubiquitination, the respective ubiquitin ligase kit from Boston Biochem (K-102, K-260, K-200B, K-220, K-240 and K-270) was used. Here, reaction buffer, E1, E2 and E3 enzyme (and p53 substrate in case of MDM2) were mixed and pre-incubated with compound or DMSO for 5 minutes at room temperature before adding Mg^2+-ATP and mono-ubiquitin for reaction start. Ubiquitination was visualized by Western Blot analyses.

These results are taken from patent publication US11001591B2, “TRAF 6 inhibitors” (HELMHOLTZ ZENTRUM MUENCHEN—DEUTSCHES FORSCHUNGSZENTRUM FÜR …, priority 2016, dated 2021).

T1 sequence (Q96J02 whole entry): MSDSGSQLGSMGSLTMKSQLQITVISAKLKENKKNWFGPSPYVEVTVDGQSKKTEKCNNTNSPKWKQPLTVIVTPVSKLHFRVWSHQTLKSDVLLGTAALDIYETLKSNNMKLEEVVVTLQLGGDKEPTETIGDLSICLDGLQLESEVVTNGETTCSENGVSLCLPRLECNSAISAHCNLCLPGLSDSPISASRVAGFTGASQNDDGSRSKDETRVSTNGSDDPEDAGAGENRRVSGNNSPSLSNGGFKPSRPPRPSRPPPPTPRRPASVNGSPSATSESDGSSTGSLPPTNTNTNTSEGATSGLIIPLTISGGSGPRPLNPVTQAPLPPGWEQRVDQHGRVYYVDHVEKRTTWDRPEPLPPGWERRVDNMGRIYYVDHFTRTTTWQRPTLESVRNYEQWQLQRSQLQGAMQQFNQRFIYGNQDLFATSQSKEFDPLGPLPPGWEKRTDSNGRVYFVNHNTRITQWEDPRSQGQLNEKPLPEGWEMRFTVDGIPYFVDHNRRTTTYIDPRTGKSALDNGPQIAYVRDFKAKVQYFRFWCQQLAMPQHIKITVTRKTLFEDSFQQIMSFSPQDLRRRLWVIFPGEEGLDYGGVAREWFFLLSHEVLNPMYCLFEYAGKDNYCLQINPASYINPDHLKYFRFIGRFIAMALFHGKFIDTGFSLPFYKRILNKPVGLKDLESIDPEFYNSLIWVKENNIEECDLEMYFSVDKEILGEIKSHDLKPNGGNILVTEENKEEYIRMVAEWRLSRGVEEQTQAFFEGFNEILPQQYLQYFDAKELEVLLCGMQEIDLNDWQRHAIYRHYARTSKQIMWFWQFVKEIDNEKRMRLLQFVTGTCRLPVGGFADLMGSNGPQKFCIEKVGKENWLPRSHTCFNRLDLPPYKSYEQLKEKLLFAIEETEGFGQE

As to `Cc1nn(-c2ccc3nnc(C)n3n2)c(C)c1CCC(=O)N1CCC(Cc2ccccc2)CC1` [Compound 3, 1-(4-benzylpiperidin-1-yl)-3-(3,5-dimethyl-1-(3-methyl-[1,2,4]triazolo[4,3-b]pyridazin-6-yl)-1H-pyrazol-4-yl)propan-1-one], in data set [1], the “IL-2 mRNA expression” value is “impaired” and the IL-2 protein secretion result is “impaired”. Also, in data set [2], the “IL-1β-induced TRAF6 auto-ubiquitination” value is “reduced”. Besides, the cell cycle progression result in data set [3] was “not impaired”. In data set [4], the “viability (cell count)” value was “significantly reduced”. Moreover, the ITCH auto-ubiquitination entry in data set [5] was “not affected”.
